Measured values: ChEMBL document CHEMBL5715954, “Silencing c-Myc translation as a therapeutic strategy through targeting PI3Kδ and CK1ε in hematological malignancies” (Blood, 2017)

Key:
Design in all cases: scale not given: the % may be the effect or the level left
[1] = target: CDC7/DBF4 (Cell division cycle 7-related protein kinase/Activator of S phase kinase) (Homo sapiens) (UniProt Q9UBU7+O00311); assay: Inhibition of human CDC7/DBF4 assessed as enzyme activity at 1 uM using KTFCGTPEYLAPEVRREPRILSEEEQEMFRDFDYIADWC as substrate preincubated for 20 mins followed by [gamma-33P]-ATP addition and measured after 120 mins by radiometric Hot-SpotSM Kinase assay relative to control; format: protein-complex assay
Sequence of CDC7/DBF4 (Cell division cycle 7-related protein kinase/Activator of S phase kinase) (Homo sapiens) (O00311 whole entry, looked up): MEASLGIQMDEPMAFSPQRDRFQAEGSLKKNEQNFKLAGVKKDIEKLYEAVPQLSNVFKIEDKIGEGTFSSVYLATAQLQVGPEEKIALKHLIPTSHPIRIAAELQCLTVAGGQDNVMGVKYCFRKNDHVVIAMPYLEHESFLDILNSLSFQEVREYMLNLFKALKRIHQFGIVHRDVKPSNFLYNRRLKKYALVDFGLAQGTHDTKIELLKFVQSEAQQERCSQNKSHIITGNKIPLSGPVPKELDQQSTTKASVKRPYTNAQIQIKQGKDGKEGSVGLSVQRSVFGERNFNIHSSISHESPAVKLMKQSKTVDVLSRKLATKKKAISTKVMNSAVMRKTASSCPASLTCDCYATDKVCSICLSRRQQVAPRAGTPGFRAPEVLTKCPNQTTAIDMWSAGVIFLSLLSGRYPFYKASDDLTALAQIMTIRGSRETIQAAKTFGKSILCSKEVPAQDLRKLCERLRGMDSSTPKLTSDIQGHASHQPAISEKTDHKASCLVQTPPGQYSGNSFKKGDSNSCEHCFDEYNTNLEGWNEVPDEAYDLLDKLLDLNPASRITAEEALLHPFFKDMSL
Sequence of CDC7/DBF4 (Cell division cycle 7-related protein kinase/Activator of S phase kinase) (Homo sapiens) (Q9UBU7 whole entry, looked up): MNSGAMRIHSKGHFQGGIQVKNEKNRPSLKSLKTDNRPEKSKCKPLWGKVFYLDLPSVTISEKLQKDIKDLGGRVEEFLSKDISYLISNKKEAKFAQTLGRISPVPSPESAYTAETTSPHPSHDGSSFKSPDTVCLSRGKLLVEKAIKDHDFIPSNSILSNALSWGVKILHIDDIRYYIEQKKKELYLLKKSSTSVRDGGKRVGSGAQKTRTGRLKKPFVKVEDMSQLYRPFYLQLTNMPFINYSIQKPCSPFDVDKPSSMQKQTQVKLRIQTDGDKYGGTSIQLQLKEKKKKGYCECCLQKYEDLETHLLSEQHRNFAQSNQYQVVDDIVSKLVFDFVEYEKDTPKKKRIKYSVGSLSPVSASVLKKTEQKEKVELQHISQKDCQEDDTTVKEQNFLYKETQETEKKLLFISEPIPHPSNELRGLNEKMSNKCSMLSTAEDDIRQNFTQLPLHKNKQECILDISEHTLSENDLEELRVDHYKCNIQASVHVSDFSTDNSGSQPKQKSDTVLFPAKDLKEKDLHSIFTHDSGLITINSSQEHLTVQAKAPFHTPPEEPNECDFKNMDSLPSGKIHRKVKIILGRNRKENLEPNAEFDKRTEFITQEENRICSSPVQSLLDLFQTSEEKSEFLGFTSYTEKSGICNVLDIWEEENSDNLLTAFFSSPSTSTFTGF

[2] = target: T1, Ephrin type-B receptor 1 (Homo sapiens) (UniProt P54762); assay: Inhibition of human EPHB1 assessed as enzyme activity at 1 uM using poly[Glu:Tyr] (4:1) as substrate preincubated for 20 mins followed by [gamma-33P]-ATP addition and measured after 120 mins by radiometric Hot-SpotSM Kinase assay relative to control
T1 sequence (whole entry): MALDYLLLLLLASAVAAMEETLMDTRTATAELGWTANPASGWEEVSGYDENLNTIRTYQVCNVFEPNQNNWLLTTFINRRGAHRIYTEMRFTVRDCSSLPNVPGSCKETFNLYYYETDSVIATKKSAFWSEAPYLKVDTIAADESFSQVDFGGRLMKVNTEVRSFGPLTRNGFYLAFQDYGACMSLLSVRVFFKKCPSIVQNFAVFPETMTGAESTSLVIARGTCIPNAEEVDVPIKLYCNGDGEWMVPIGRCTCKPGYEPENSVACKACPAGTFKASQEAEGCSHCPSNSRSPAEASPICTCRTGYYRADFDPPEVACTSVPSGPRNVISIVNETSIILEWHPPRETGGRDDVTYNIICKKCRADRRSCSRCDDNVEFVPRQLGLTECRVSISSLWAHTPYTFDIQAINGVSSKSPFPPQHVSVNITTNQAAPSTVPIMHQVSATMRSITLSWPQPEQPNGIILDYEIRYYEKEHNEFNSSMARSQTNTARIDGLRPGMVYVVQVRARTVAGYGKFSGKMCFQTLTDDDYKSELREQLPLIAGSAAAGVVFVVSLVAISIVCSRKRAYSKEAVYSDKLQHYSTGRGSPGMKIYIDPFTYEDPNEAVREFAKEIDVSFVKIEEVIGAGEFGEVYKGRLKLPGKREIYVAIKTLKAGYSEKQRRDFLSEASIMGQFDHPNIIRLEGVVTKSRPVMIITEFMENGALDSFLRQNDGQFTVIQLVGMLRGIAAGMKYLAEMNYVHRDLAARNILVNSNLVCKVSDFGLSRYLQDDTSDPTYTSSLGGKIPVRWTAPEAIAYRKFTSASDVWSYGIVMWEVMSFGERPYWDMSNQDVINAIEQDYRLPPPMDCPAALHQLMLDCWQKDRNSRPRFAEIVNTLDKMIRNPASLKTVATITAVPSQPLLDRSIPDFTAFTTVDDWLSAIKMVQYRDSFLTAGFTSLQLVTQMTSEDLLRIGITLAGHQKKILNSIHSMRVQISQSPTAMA

[3] = target: T2, Mitogen-activated protein kinase kinase kinase kinase 3 (Homo sapiens) (UniProt Q8IVH8); assay: Inhibition of human GLK/MAP4K3 assessed as enzyme activity at 1 uM using myelin basic protein as substrate preincubated for 20 mins followed by [gamma-33P]-ATP addition and measured after 120 mins by radiometric Hot-SpotSM Kinase assay relative to control
T2 sequence (whole entry): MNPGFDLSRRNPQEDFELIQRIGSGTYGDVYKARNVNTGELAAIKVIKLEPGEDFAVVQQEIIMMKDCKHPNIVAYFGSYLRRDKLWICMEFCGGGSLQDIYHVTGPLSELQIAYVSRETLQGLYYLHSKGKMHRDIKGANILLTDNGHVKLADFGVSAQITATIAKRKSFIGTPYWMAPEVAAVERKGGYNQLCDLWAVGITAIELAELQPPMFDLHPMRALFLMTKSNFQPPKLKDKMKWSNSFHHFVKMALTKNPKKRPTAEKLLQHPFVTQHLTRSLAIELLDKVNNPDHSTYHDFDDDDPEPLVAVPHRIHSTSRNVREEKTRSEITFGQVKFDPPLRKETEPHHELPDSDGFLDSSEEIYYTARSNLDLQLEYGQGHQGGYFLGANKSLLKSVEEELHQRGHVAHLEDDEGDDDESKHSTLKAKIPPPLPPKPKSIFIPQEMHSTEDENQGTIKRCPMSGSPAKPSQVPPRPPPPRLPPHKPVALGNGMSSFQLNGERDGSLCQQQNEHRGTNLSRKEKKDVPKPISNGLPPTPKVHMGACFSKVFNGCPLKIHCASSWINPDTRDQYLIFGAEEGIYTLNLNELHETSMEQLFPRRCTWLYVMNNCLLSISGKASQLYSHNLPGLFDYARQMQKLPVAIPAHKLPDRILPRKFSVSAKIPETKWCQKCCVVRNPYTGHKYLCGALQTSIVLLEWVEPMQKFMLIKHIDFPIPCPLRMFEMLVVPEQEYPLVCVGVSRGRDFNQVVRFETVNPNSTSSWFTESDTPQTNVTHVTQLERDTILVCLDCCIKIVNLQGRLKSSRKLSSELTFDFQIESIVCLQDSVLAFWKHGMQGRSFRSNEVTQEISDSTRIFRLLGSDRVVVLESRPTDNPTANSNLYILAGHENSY

[4] = target: Homeodomain-interacting protein kinase 1 (Homo sapiens) (UniProt Q86Z02); assay: Inhibition of human HIPK1 assessed as enzyme activity at 1 uM using myelin basic protein as substrate preincubated for 20 mins followed by [gamma-33P]-ATP addition and measured after 120 mins by radiometric Hot-SpotSM Kinase assay relative to control
Sequence of Homeodomain-interacting protein kinase 1 (Homo sapiens) (Q86Z02 whole entry, looked up): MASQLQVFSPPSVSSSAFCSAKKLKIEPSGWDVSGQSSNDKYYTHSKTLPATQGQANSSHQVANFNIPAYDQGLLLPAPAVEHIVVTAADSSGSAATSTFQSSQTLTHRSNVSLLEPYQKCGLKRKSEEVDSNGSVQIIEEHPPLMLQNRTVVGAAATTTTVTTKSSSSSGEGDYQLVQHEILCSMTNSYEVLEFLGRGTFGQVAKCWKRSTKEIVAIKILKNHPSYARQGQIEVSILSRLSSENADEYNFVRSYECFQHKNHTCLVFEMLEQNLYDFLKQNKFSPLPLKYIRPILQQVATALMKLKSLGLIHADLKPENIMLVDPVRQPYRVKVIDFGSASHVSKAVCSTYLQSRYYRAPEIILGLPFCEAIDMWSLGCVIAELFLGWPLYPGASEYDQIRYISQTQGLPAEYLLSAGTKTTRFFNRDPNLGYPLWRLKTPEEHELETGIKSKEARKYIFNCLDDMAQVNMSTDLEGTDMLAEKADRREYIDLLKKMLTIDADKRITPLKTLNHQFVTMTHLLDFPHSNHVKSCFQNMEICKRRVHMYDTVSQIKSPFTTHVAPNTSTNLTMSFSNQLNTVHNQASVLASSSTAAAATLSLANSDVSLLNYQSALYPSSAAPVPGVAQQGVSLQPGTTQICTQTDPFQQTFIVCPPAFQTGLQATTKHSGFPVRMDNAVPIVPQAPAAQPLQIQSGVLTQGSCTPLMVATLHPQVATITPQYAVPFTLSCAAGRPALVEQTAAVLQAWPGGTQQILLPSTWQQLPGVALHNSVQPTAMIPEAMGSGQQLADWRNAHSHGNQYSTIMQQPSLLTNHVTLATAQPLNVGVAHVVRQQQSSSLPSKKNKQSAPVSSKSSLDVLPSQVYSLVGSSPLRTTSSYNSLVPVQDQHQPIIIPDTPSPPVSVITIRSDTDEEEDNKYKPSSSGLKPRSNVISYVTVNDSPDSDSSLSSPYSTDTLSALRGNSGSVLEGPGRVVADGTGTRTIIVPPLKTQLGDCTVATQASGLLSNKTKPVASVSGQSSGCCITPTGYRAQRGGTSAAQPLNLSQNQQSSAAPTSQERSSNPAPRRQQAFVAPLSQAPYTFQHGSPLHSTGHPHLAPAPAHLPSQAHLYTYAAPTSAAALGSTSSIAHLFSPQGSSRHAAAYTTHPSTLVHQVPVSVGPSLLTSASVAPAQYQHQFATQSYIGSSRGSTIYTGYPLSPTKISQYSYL

[5] = target: T3, Dual specificity mitogen-activated protein kinase kinase 6 (Homo sapiens) (UniProt P52564); assay: Inhibition of human MKK6 assessed as enzyme activity at 1 uM using p38a (K53A) as substrate preincubated for 20 mins followed by [gamma-33P]-ATP addition and measured after 120 mins by radiometric Hot-SpotSM Kinase assay relative to control
T3 sequence (whole entry): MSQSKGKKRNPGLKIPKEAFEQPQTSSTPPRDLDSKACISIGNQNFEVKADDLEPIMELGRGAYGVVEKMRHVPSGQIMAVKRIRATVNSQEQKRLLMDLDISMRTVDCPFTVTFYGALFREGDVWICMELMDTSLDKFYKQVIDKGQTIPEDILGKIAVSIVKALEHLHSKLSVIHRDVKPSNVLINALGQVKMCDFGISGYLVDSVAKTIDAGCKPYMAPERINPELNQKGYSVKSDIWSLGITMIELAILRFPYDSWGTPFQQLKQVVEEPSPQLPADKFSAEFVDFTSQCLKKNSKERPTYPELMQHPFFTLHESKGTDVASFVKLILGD

[6] = target: Protein-tyrosine kinase 2-beta (Homo sapiens) (UniProt Q14289); assay: Inhibition of human PYK2 assessed as enzyme activity at 1 uM using poly[Glu:Tyr] (4:1) as substrate preincubated for 20 mins followed by [gamma-33P]-ATP addition and measured after 120 mins by radiometric Hot-SpotSM Kinase assay relative to control
Sequence of Protein-tyrosine kinase 2-beta (Homo sapiens) (Q14289 whole entry, looked up): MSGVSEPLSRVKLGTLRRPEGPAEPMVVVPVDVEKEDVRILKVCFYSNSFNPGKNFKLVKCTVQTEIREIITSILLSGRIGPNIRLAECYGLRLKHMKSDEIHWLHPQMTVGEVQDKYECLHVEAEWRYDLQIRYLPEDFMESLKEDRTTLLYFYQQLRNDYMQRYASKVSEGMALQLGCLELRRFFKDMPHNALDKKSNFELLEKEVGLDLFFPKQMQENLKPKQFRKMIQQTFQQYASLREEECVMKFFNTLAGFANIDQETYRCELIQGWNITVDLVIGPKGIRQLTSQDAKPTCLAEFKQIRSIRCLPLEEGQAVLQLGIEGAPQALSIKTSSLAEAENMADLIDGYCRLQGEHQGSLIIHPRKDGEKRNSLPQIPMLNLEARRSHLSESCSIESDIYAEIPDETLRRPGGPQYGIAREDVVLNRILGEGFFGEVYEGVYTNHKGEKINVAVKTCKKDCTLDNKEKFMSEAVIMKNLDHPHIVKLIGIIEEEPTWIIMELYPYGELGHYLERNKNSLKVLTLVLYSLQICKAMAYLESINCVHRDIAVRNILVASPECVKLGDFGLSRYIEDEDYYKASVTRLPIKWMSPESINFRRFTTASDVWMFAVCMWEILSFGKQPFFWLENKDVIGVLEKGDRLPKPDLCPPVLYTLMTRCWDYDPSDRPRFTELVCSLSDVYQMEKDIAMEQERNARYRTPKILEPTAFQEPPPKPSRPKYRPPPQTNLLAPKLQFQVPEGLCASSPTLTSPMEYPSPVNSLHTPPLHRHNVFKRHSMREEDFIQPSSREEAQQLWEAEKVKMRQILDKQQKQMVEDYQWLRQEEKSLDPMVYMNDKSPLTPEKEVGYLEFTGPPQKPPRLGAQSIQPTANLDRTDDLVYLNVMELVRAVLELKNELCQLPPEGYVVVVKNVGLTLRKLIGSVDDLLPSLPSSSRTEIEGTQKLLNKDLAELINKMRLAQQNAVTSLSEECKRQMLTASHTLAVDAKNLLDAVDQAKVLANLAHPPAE

CC[C@H](Nc1ncnc2[nH]cnc12)c1nc2cccc(F)c2c(=O)n1-c1ccccc1
Activity [1]: 91.6% | Activity [2]: 90.6% | Activity [3]: 95.2% | Activity [4]: 102% | Activity [5]: 87.2% | Activity [6]: 101%

CC(C)Oc1ccc(-c2nn([C@@H](C)c3oc4ccc(F)cc4c(=O)c3-c3cccc(F)c3)c3ncnc(N)c23)cc1F [UMBRALISIB]
Activity [1]: 92% | Activity [2]: 95.5% | Activity [3]: 99.3% | Activity [4]: 101% | Activity [5]: 87.8% | Activity [6]: 102%

C[C@H](Nc1ncnc2nc[nH]c12)c1cc2cccc(Cl)c2c(=O)n1-c1ccccc1
Activity [1]: 93.8% | Activity [2]: 93.4% | Activity [3]: 98.3% | Activity [4]: 103% | Activity [5]: 86.2% | Activity [6]: 99.5%
